Measurements from BindingDB's records for patent WO2021069705 (MONTE ROSA THERAPEUTICS AG, 2021).

Target: Protein cereblon (Homo sapiens, UniProt Q96SW2)
Assay: Protocol for Fluorescent Polarization assay
Procedure: Compound activity was monitored in a fluorescence polarization (FP) homogeneous assay using 1 -[5-({2-[2-(2-{[2-(2,6-dioxopiperidin-3-yl)-1 ,3-dioxo-2,3-dihydro-1 H-isoindol-4-yl]oxy}acetamido)ethoxy]ethyl}carbamoyl)pentyl]-3,3-dimethyl-2-[(1 E,3E)-5-[(2E)-1 ,3,3-trimethyl-5-sulfo-2,3-dihydro-1 H-indol-2-ylidene]penta-1 ,3-dien-1 -yl]-3H-indol-1 -ium-5-sulfonate as a fluorescent probe. Unless otherwise stated, all reagents were purchased from Sigma Aldrich. Enzymatic reactions were conducted in Perkin-Elmer Black 384 well ProxiPlate Plus (catalogue no. 6008269) in 10 μL total volume. Full length wild-type cereblon CRBN (80.0 nM, 10 μL) was incubated in assay buffer containing 20 mM HEPES (pH 8.0), 1 50 NaCl, 0.5 mM TCEP and 0.05% Tween 20 in the presence or absence of compound (300 nL). Inhibitors were stored as 10 mM DMSO stocks in an inert environment (low humidity, dark, low oxygen, room temperature) using the Storage Pod System. Compounds and DMSO were dispensed using the Echo E5XX (Labcyte Inc. USA) to give concentrations from 300 to 0.937 or 3000 to 9.3 nM in a 1 2 data point curve. […] FP was measured after a period of 1 2 hours using a Pherastar plate reader (BMG Labtech, Germany) exciting at 590 nm and measuring the amount of parallel and perpendicular light at 675 nm. […]

Chain of Protein cereblon (Q96SW2 whole entry): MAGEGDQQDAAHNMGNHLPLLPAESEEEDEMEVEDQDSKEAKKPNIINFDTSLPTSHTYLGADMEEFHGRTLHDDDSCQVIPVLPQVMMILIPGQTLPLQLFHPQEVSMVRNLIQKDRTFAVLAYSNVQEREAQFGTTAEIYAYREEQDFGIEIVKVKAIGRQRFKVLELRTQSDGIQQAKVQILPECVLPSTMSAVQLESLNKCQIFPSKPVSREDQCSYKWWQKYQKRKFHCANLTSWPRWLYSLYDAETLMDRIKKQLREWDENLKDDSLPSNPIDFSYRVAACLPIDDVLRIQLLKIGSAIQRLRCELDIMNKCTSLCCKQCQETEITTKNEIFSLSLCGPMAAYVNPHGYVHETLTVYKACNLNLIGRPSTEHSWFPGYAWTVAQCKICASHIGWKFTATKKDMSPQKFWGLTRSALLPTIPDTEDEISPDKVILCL

- IC50: 617 nM
SMILES: O=C1CCC(N2Cc3ccc(CNC(=O)Nc4ccc(Br)cc4)cc3C2=O)C(=O)N1 (stereo unspecified) [WO2021069705, Compound 9]
